We go through five compounds from patent publication US12052991B2, “Substituted pyridinyloxybenzenes and salts thereof and use thereof as herbicidal agents” (Bayer Aktiengesellschaft, priority 2018, dated 2024).

Common to all, as to format: in vivo
The test system of one assay is Poa annua (POAAN). Put plainly: Herbicidal early post-emergence action (Table A3). The settings on record: 1900 g/ha; scored visually 9 to 12 days after treatment; 100% = plants have died, 0% = like control plants. The procedure:
(§1) Seeds of monocotyledonous and dicotyledonous weed plants were placed in 96-well microtiter plates in quartz sand and grown in a climatized chamber under controlled growth conditions. 5 to 7 days after sowing, the test plants were treated at the cotyledon stage. The compounds according to the invention, formulated in the form of emulsion concentrates (EC), were applied with a water application rate of the equivalent of 2200 liters per hectare. After the test plants had been left to stand in the climatized chamber for 9 to 12 days under optimum growth conditions, the effect of the preparations was scored visually in comparison to untreated controls. For example, 100% activity=the plants have died, 0% activity=like control plants. Tables A1 to A8 below show the effects of selected compounds of the general formula (I) according to Table 1 on various harmful plants and an application rate corresponding to 1900 g/ha, which were obtained by the experimental procedure mentioned above.

Assay [1] relates to harmful plants AGSTE, DIPTE, LOLPE, MATCH, POAAN, SETVI, STEME and VERPE. Put plainly: Herbicidal early post-emergence action, summary of Tables A1-A8. To be noted: application rate of 1900 g of active ingredient per hectare; summary in words. As for the experimental part: as §1, with “plants.” for “plants. Tables A1 to A8 below show the effects of selected compounds of the general formula (I) according to Table 1 on various harmful plants and an application rate corresponding to 1900 g/ha, which were obtained by the experimental procedure mentioned above.”
Tables A1 to A8 below show the effects of selected compounds of the general formula (I) according to Table 1 on various harmful plants and an application rate corresponding to 1900 g/ha, which were obtained by the experimental procedure mentioned above.
As the results of Tables A1-A8 show, compounds no.

For the next assay, the system named is Agrostis tenuis (AGSTE). Put plainly: Herbicidal early post-emergence action (Table A1). To be noted: 1900 g/ha; scored visually 9 to 12 days after treatment; 100% = plants have died, 0% = like control plants. As for the experimental part:
as §1

For `COc1ccc(-c2cc(C(F)F)no2)c(Oc2ncc(Cl)cc2F)c1` [Example 1-37], the “Early post-emergence effect against Poa annua (POAAN)” value (from here on “Early post-emergence effect … (POAAN)”) in the assay with Poa annua (POAAN) was determined as 80%. In addition, the “herbicidal activity against the harmful plants of Tables A1-A8 in early post-emergence treatment” value (“herbicidal activity” for short) in assay [1] was “very good herbicidal activity”.
The matching figures for `Cc1ccc(-c2ccccc2Oc2ncc(Cl)cc2F)nc1` [Example 1-106]: 80% and “very good herbicidal activity”.
In the case of `Fc1ccc(Oc2cccc(F)c2-c2cc(C(F)F)no2)nc1` [Example 1-41], in the assay on Poa annua (POAAN), the “Early post-emergence effect … (POAAN)” value was 100%. For the same compound, the “Early post-emergence effect against Agrostis tenuis (AGSTE)” value (“Early post-emergence effect … (AGSTE)” below) in the assay on Agrostis tenuis (AGSTE) is reported as 80%. In addition, in assay [1], the “herbicidal activity” value was “very good herbicidal activity”.
In the case of `Fc1cc(Cl)cnc1Oc1ccccc1-c1cc(C(F)(F)F)ccn1` [Example 1-69], the “Early post-emergence effect … (POAAN)” value in the assay on Poa annua (POAAN) was found to be 100%. Moreover, in the assay with Agrostis tenuis (AGSTE), the “Early post-emergence effect … (AGSTE)” value was 100%. Besides, the “herbicidal activity” value in assay [1] was “very good herbicidal activity”.
In the case of `FC(F)(F)c1cncc(-c2ccccc2Oc2ccc(Cl)cn2)c1` [Example 1-73], the “Early post-emergence effect … (POAAN)” value in the assay on Poa annua (POAAN) is recorded as 80%. Besides, in the assay with Agrostis tenuis (AGSTE), the “Early post-emergence effect … (AGSTE)” value is listed as 100%. The “herbicidal activity” value in assay [1] is “very good herbicidal activity”.
